Measured values reported in patent publication US20110224210A1, “NOVEL BIS-AMIDES AS ANTI-MALARIAL AGENTS” (priority 2008, published 2011).

system: P. falciparum K1 (strain resistant to chloroquine and pyrimethamine), erythrocytic stages; assay: Plasmodium falciparum in vitro assay, [3H] hypoxanthine incorporation; assay type: cell-based; conditions: P. falciparum strain K1; [3H] hypoxanthine incorporation; read-out: IC50 (nM) on K1
Summary of the method: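 Chloroquine/pyrimethamine-resistant K1 erythrocytic cultures (2.5% haematocrit, 0.3% parasitaemia, hypoxanthine-free RPMI with Albumax) exposed to seven doubling dilutions at 37 °C under low O2.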

IC50 | Compound
89 nM | CC(=O)N1CCN(c2ccc(CN(C(=O)C=Cc3ccc(C(F)(F)F)cc3)[C@@H](Cc3ccccc3)C(=O)N(C)CCOCc3ccc(C)cc3C)cc2)CC1 [Example 194, (S)-N-[4-(4-Acetyl-piperazin-1-yl)-benzyl]-N-(1-{[2-(2,4-dimethyl-benzyloxy)-ethyl]-methyl-carbamoyl}-2-phenyl-ethyl)-3-(4-trifluoromethyl-phenyl)-acrylamide]

same assay, conditions: Plasmodium falciparum, K1, P. falciparum strain K1; [3H] hypoxanthine incorporation; read-out: IC50 (nM) on K1

IC50 | Compound
19 nM | CCOCCN(C)C(=O)[C@H](Cc1ccccc1)N(Cc1ccc(N2CCOCC2)cc1)C(=O)C=Cc1ccc(C(F)(F)F)cc1 [Example 192, (S)-N-{1-[(2-Ethoxy-ethyl)-methyl-carbamoyl]-2-phenyl-ethyl}-N-(4-morpholin-4-yl-benzyl)-3-(4-trifluoromethyl-phenyl)-acrylamide]
20 nM | CCOCCN(C)C(=O)[C@H](Cc1ccccc1)N(Cc1ccc(N2CCN(C(C)=O)CC2)cc1)C(=O)C=Cc1ccc(C(F)(F)F)cc1 [Example 193, (S)-N-[4-(4-Acetyl-piperazin-1-yl)-benzyl]-N-{1-[(2-ethoxy-ethyl)-methyl-carbamoyl]-2-phenyl-ethyl}-3-(4-trifluoromethyl-phenyl)-acrylamide]
81 nM | Cc1ccc(COCCN(C)C(=O)[C@H](Cc2ccccc2)N(Cc2ccc(N3CCOCC3)cc2)C(=O)C=Cc2ccc(C(F)(F)F)cc2)c(C)c1 [Example 195, (S)-N-(1-{[2-(2,4-Dimethyl-benzyloxy)-ethyl]-methyl-carbamoyl}-2-phenyl-ethyl)-N-(4-morpholin-4-yl-benzyl)-3-(4-trifluoromethyl-phenyl)-acrylamide]
16 nM | COc1ccc(COCCN(C)C(=O)[C@H](Cc2ccccc2)N(Cc2ccc(N3CCOCC3)cc2)C(=O)C=Cc2ccc(C(F)(F)F)cc2)cc1F [Example 196, (S)-N-(1-{[2-(3-Fluoro-4-methoxy-benzyloxy)-ethyl]-methyl-carbamoyl}-2-phenyl-ethyl)-N-(4-morpholin-4-yl-benzyl)-3-(4-trifluoromethyl-phenyl)-acrylamide]
29 nM | CN(CCOCc1cccc(C#N)c1)C(=O)[C@H](Cc1ccccc1)N(Cc1ccc(N2CCOCC2)cc1)C(=O)C=Cc1ccc(C(F)(F)F)cc1 [Example 197, (S)-N-(1-{[2-(3-Cyano-benzyloxy)-ethyl]-methyl-carbamoyl}-2-phenyl-ethyl)-N-(4-morpholin-4-yl-benzyl)-3-(4-trifluoromethyl-phenyl)-acrylamide]
65 nM | CN(CCOCc1cccc(OC(F)(F)F)c1)C(=O)[C@H](Cc1ccccc1)N(Cc1ccc(N2CCOCC2)cc1)C(=O)C=Cc1ccc(C(F)(F)F)cc1 [Example 198, (S)-N-(1-{Methyl-[2-(3-trifluoromethoxy-benzyloxy)-ethyl]-carbamoyl}-2-phenyl-ethyl)-N-(4-morpholin-4-yl-benzyl)-3-(4-trifluoromethyl-phenyl)-acrylamide]
34 nM | COc1cc(COCCN(C)C(=O)[C@H](Cc2ccccc2)N(Cc2ccc(N3CCOCC3)cc2)C(=O)C=Cc2ccc(C(F)(F)F)cc2)cc(OC)c1 [Example 199, (S)-N-(1-{[2-(3,5-Dimethoxy-benzyloxy)-ethyl]-methyl-carbamoyl}-2-phenyl-ethyl)-N-(4-morpholin-4-yl-benzyl)-3-(4-trifluoromethyl-phenyl)-acrylamide]
32 nM | CN(CCOCc1ccc(OC(F)F)cc1)C(=O)[C@H](Cc1ccccc1)N(Cc1ccc(N2CCOCC2)cc1)C(=O)C=Cc1ccc(C(F)(F)F)cc1 [Example 201, (S)-N-(1-{[2-(4-Difluoromethoxy-benzyloxy)-ethyl]-methyl-carbamoyl}-2-phenyl-ethyl)-N-(4-morpholin-4-yl-benzyl)-3-(4-trifluoromethyl-phenyl)-acrylamide]
14 nM | CN(CCOCc1ccc2c(c1)nnn2C)C(=O)[C@H](Cc1ccccc1)N(Cc1ccc(N2CCOCC2)cc1)C(=O)C=Cc1ccc(C(F)(F)F)cc1 [Example 202, (S)-N-(1-{Methyl-[2-(1-methyl-1H-benzotriazol-5-ylmethoxy)-ethyl]-carbamoyl}-2-phenyl-ethyl)-N-(4-morpholin-4-yl-benzyl)-3-(4-trifluoromethyl-phenyl)-acrylamide]
12 nM | CN(CCOCc1cccnc1)C(=O)[C@H](Cc1ccccc1)N(Cc1ccc(N2CCOCC2)cc1)C(=O)C=Cc1ccc(C(F)(F)F)cc1 [Example 203, (S)-N-(1-{Methyl-[2-(pyridin-3-ylmethoxy)-ethyl]-carbamoyl}-2-phenyl-ethyl)-N-(4-morpholin-4-yl-benzyl)-3-(4-trifluoromethyl-phenyl)-acrylamide]
9 nM | CC(=O)N1CCN(c2ccc(CN(C(=O)C=Cc3ccc(C(F)(F)F)cc3)[C@@H](Cc3ccccc3)C(=O)N(C)CCOCc3cc(C)on3)cc2)CC1 [Example 204, (S)-N-[4-(4-Acetyl-piperazin-1-yl)-benzyl]-N-(1-{methyl-[2-(5-methyl-isoxazol-3-ylmethoxy)-ethyl]-carbamoyl}-2-phenyl-ethyl)-3-(4-trifluoromethyl-phenyl)-acrylamide]
16 nM | CC(=O)N1CCN(c2ccc(CN(C(=O)C=Cc3ccc(C(F)(F)F)cc3)[C@@H](Cc3ccccc3)C(=O)N(C)CCOCc3ccncc3)cc2)CC1 [Example 205, (S)-N-[4-(4-Acetyl-piperazin-1-yl)-benzyl]-N-(1-{methyl-[2-(pyridin-4-ylmethoxy)-ethyl]-carbamoyl}-2-phenyl-ethyl)-3-(4-trifluoromethyl-phenyl)-acrylamide]
81 nM | CC(=O)N1CCN(c2ccc(CN(C(=O)C=Cc3ccc(C(F)(F)F)cc3)[C@@H](Cc3ccccc3)C(=O)N(C)CCOCc3ccc(C(F)(F)F)o3)cc2)CC1 [Example 206, (S)-N-[4-(4-Acetyl-piperazin-1-yl)-benzyl]-N-(1-{methyl-[2-(5-trifluoromethyl-furan-2-ylmethoxy)-ethyl]-carbamoyl}-2-phenyl-ethyl)-3-(4-trifluoromethyl-phenyl)-acrylamide]
40 nM | CC(=O)N1CCN(c2ccc(CN(C(=O)C=Cc3ccc(C(F)(F)F)cc3)[C@@H](Cc3ccccc3)C(=O)N(C)CCOCC3CC3)cc2)CC1 [Example 207, (S)-N-[4-(4-Acetyl-piperazin-1-yl)-benzyl]-N-{1-[(2-cyclopropylmethoxy-ethyl)-methyl-carbamoyl]-2-phenyl-ethyl}-3-(4-trifluoromethyl-phenyl)-acrylamide]
57 nM | CC(=O)N1CCN(c2ccc(CN(C(=O)C=Cc3ccc(C(F)(F)F)nc3)[C@@H](Cc3ccccc3)C(=O)N(C)CCOCc3ccncc3)cc2)CC1 [Example 208, (S)-N-[4-(4-Acetyl-piperazin-1-yl)-benzyl]-N-(1-{methyl-[2-(pyridin-4-ylmethoxy)-ethyl]-carbamoyl}-2-phenyl-ethyl)-3-(6-trifluoromethyl-pyridin-3-yl)-acrylamide]
31 nM | CC(=O)N1CCN(c2ccc(CN(C(=O)C=Cc3ccc(C(F)(F)F)nc3)[C@@H](Cc3ccccc3)C(=O)N(C)CCOCc3cc(C)on3)cc2)CC1 [Example 209, (S)-N-[4-(4-Acetyl-piperazin-1-yl)-benzyl]-N-(1-{methyl-[2-(5-methyl-isoxazol-3-ylmethoxy)-ethyl]-carbamoyl}-2-phenyl-ethyl)-3-(6-trifluoromethyl-pyridin-3-yl)-acrylamide]
